Source: patent US7795456B2, “Insecticidal N-substituted sulfoximines” (Dow AgroSciences LLC, priority 2004, dated 2010)

What was measured:
[1] = system: cotton aphid (Aphis gossypii); assay: Insecticidal test for cotton aphid, foliar spray on squash; conditions: for pest or weed control at 200 ppm / pest or weed control at 50 ppm: Aphis gossypii, foliar, 72 h; for pest or weed control at 200 ppm: read-out: CA 200: % control at 200 ppm against cotton aphid in foliar spray tests; for pest or weed control at 50 ppm: read-out: CA 50: % control at 50 ppm against cotton aphid in foliar spray tests; for % Control at ppm, against cotton aphid: 0.195: 0.195 ppm; for % Control at ppm, against cotton aphid: 0.78: 0.78 ppm; for % Control at ppm, against cotton aphid: 3.12: 3.12 ppm; for % Control at ppm, against cotton aphid: 12.5: 12.5 ppm; for % Control at ppm, against cotton aphid: 50: 50 ppm
[2] = system: fruit fly (Drosophila melanogaster); conditions: for FF 25: % mortality at 25 μg/cm2 against fruit fly in dietary tests: 25 μg/cm2, 48 h; for FF SYM: % showing intoxicated symptoms at 25 μg/cm2 against fruit fly in dietary tests: 25 μg/cm2, 4 h
[3] = system: beet armyworm (Spodoptera exigua); conditions: 50 μg/cm2, second-instar larvae, 5 days
[4] = system: corn earworm (Helicoverpa zea); conditions: 50 μg/cm2, second-instar larvae, 5 days
[5] = system: sweet potato whitefly (Bemisia tabaci); assay: Insecticidal test for sweet potato whitefly, foliar spray on cotton; conditions: Bemisia tabaci, in Gossypium hirsutum, foliar, read-out: SPW 200: % control at 200 ppm against sweet potato whitefly in foliar spray tests
[6] = system: beet armyworm (Spodoptera exigua); assay: Insecticidal test for beet armyworm in injection assays; conditions: 1 h, read-out: BAW SYM: % showing intoxicated symptoms at 10 μg/larva against beet armyworm in injection tests
[7] = system: green peach aphid (Myzus persicae); assay: Insecticidal test for green peach aphid, foliar spray on cabbage seedlings; conditions: rundown assay, 3 days; for % Control at ppm, against green peach aphid: 0.78: 0.78 ppm; for % Control at ppm, against green peach aphid: 3.12: 3.12 ppm; for % Control at ppm, against green peach aphid: 12.5: 12.5 ppm; for % Control at ppm, against green peach aphid: 50: 50 ppm

SMILES	pest or weed control at 200 ppm [1]	FF 25: % mortality at 25 μg/cm2 against fruit fly in dietary tests [2]	BAW 50: % mortality at 50 μg/cm2 against beet armyworm in dietary tests [3]	CEW 50: % mortality at 50 μg/cm2 against corn earworm in dietary tests [4]	pest or weed control at 50 ppm [1]	other results
CC[S@](=O)(=N[N+](=O)[O-])[C@H](C)c1ccc(Cl)nc1 [Compound 39]	90 to 100%	F (Less than 50)	G (Inactive)	G (Inactive)		
CCS(=O)(=NC#N)C(C)c1ccc(Cl)nc1 (centres unmarked) [Compound 18]	90 to 100%	G (Inactive)	G (Inactive)	G (Inactive)	90 to 100%	pest or weed control at 200 ppm [5]: 80 to 89%; pest or weed control at 0.01 mg [6]: < 50%
CC(CS(C)(=O)=NC#N)c1ccc(Cl)nc1 (centres unmarked) [Compound 15]	90 to 100%	G (Inactive)	G (Inactive)	G (Inactive)	80 to 89%	
CS(=O)(CCc1ccc(Cl)nc1)=NC#N (centres unmarked) [Compound 13]	90 to 100%	G (Inactive)	G (Inactive)	G (Inactive)	90 to 100%	pest or weed control at 200 ppm [5]: 90 to 100%; pest or weed control at 0.01 mg [6]: < 50%; % Control at ppm, against cotton aphid: 0.195 ([1]; rundown assay): F (Less than 50); % Control at ppm, against cotton aphid: 0.78 ([1]; rundown assay): A (90-100); % Control at ppm, against cotton aphid: 3.12 ([1]; rundown assay): A (90-100); % Control at ppm, against cotton aphid: 12.5 ([1]; rundown assay): A (90-100); % Control at ppm, against cotton aphid: 50 ([1]; rundown assay): A (90-100); % Control at ppm, against green peach aphid: 0.78 [7]: F (Less than 50); % Control at ppm, against green peach aphid: 3.12 [7]: C (70-79); % Control at ppm, against green peach aphid: 12.5 [7]: C (70-79); % Control at ppm, against green peach aphid: 50 [7]: B (80-89)
CC(C)C1CCCS1(=O)=NC#N (centres unmarked) [Compound 32]	80 to 89%	G (Inactive)	G (Inactive)	G (Inactive)		pest or weed control at 0.01 mg [6]: 50 to 59%
CC(Cc1ccc(Cl)nc1)CS(C)(=O)=NC#N (centres unmarked) [Compound 2, [3-(6-Chloropyridin-3-yl)-2-methylpropyl](methyl)oxido-λ^4-sulfanylidenecyanamide]	90 to 100%	G (Inactive)	G (Inactive)	G (Inactive)	80 to 89%	
CC[S@@](=O)(C[C@@H](C)c1ccc(Cl)nc1)=NC#N [Compound 17]	90 to 100%	G (Inactive)	G (Inactive)	G (Inactive)	90 to 100%	
CC(Cc1ccc(Cl)nc1)CS(C)(=O)=N[N+](=O)[O-] (centres unmarked) [Compound 3, 2-chloro-5-(2-methyl-3-{methyl(oxido)[oxido-(oxo)hydrazono]-λ^4-sulfanyl}propyl)pyridine]	80 to 89%	G (Inactive)	G (Inactive)	G (Inactive)		
CCOc1ccc(S(C)(=O)=NC#N)cn1 (centres unmarked) [Compound 42, (6-Ethoxypyridin-3-yl)(methyl)oxido-λ^4-sulfanylidenecyanamide]	90 to 100%	G (Inactive)	G (Inactive)	G (Inactive)	70 to 79%	
CC(CS(C)(=O)=N[N+](=O)[O-])c1ccc(Cl)nc1 (centres unmarked) [Compound 4, 2-Chloro-5-(1-methyl-2-{methyl(oxido)[oxido(oxo)hydrazono]-λ^4-sulfanyl}ethyl)pyridine]	< 50%	G (Inactive)	G (Inactive)	G (Inactive)		pest or weed control at 0.01 mg [6]: < 50%
CC(c1ccc(Cl)nc1)S(C)(=O)=N[N+](=O)[O-] (centres unmarked) [Compound 36]	90 to 100%	F (Less than 50)	G (Inactive)	G (Inactive)	90 to 100%	% Control at ppm, against cotton aphid: 0.049 ([1]; 0.049 ppm, rundown assay): F (Less than 50); % Control at ppm, against cotton aphid: 0.195 ([1]; rundown assay): F (Less than 50); % Control at ppm, against cotton aphid: 0.78 ([1]; rundown assay): C (70-79); % Control at ppm, against cotton aphid: 3.12 ([1]; rundown assay): A (90-100); % Control at ppm, against cotton aphid: 12.5 ([1]; rundown assay): A (90-100); % Control at ppm, against cotton aphid: 50 ([1]; rundown assay): A (90-100); FF SYM: % showing intoxicated symptoms at 25 μg/cm2 against fruit fly in dietary tests [2]: F (Less than 50); % Control at ppm, against green peach aphid: 0.049 ([7]; 0.049 ppm): F (Less than 50); % Control at ppm, against green peach aphid: 0.195 ([7]; 0.195 ppm): E (50-59); % Control at ppm, against green peach aphid: 0.78 [7]: D (60-69); % Control at ppm, against green peach aphid: 3.12 [7]: C (70-79); % Control at ppm, against green peach aphid: 12.5 [7]: A (90-100); % Control at ppm, against green peach aphid: 50 [7]: A (90-100)
Cc1ccc(CC2CCCS2(=O)=NC#N)cn1 (centres unmarked) [Compound 30]	90 to 100%	G (Inactive)	G (Inactive)	G (Inactive)	90 to 100%	
CC(C)[C@H]1CCCS1(=O)=NC#N (some centres unmarked) [Compound 31]	90 to 100%	G (Inactive)	G (Inactive)	G (Inactive)		
CC[S@@](=O)(C[C@H](C)c1ccc(Cl)nc1)=NC#N [Compound 16]	90 to 100%	G (Inactive)	G (Inactive)	G (Inactive)	90 to 100%	pest or weed control at 0.01 mg [6]: < 50%
N#CN=S1(=O)CCCCC1 [Compound 6, 1-Oxidohexahydro-1λ^4-thiopyran-1-ylidenecyanamide]		G (Inactive)	G (Inactive)	G (Inactive)		
CC[S@](=O)(=N[N+](=O)[O-])[C@@H](C)c1ccc(Cl)nc1 [Compound 40]	80 to 89%	G (Inactive)	G (Inactive)	G (Inactive)		
COC(=O)N=S1(=O)CCCC1Cc1ccc(Cl)nc1 (centres unmarked) [Compound 7, methyl 2-[(6-chloropyridin-3-yl)methyl]-1-oxidotetrahydro-1H-1λ^4-thien-1-ylidenecarbamate]	80 to 89%	G (Inactive)	G (Inactive)	G (Inactive)		
N#CN=S1(=O)CCCC1c1ccccc1 (centres unmarked) [Compound 22, (1-oxido-2-phenyltetrahydro-1H-11^4-thien-1-ylidene)cyanamide]	90 to 100%	G (Inactive)	G (Inactive)	G (Inactive)	80 to 89%	pest or weed control at 0.01 mg [6]: < 50%
CS(=O)(CCc1ccc(Cl)nc1)=N[N+](=O)[O-] (centres unmarked) [Compound 37]	90 to 100%	G (Inactive)	G (Inactive)	G (Inactive)	90 to 100%	
CS(=O)(Cc1ccc(Cl)nc1)=N[N+](=O)[O-] (centres unmarked) [Compound 33]	90 to 100%	F (Less than 50)	G (Inactive)	G (Inactive)	90 to 100%	FF SYM: % showing intoxicated symptoms at 25 μg/cm2 against fruit fly in dietary tests [2]: F (Less than 50)
CC[S@](=O)(=NC#N)[C@@H](C)c1ccc(Cl)nc1 [Compound 19]	90 to 100%	F (Less than 50)	G (Inactive)	G (Inactive)	90 to 100%	pest or weed control at 200 ppm [5]: 70 to 79%
